What was measured:
[1] = biological target: T1, human muscarinic M2 receptor (Homo sapiens, UniProt P08172); test: Alphascreen Surefire phospho-ERK1/2 functional assay, M2; details: for Emax: CHO, read-out: % Emax cf. ACh, M2, CHO cells stably expressing human M2; for Emax / % Emax cf. ACh, M2: relative to ACh
T1 sequence (P08172 1-466): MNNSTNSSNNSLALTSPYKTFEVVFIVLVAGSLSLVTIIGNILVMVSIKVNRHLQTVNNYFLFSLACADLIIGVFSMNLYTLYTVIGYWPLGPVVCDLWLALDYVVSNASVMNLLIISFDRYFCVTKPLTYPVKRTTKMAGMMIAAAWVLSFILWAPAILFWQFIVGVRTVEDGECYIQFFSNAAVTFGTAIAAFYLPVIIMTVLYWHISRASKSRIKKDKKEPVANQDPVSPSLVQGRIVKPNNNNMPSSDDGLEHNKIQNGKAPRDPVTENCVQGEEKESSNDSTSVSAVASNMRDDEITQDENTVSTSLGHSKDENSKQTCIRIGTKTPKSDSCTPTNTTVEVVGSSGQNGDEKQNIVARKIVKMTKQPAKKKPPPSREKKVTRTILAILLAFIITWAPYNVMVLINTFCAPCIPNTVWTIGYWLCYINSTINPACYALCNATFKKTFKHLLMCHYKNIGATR

[2] = biological target: human muscarinic M3 receptor (Homo sapiens, UniProt P20309); test: Alphascreen Surefire phospho-ERK1/2 functional assay, M3; details: for Emax: CHO, read-out: % Emax cf. ACh, M3, CHO cells stably expressing human M3; for Emax / % Emax cf. ACh, M3: relative to ACh; for EC50: pEC50 M3, CHO cells stably expressing human M3
human muscarinic M3 receptor, sequence (P20309 whole entry): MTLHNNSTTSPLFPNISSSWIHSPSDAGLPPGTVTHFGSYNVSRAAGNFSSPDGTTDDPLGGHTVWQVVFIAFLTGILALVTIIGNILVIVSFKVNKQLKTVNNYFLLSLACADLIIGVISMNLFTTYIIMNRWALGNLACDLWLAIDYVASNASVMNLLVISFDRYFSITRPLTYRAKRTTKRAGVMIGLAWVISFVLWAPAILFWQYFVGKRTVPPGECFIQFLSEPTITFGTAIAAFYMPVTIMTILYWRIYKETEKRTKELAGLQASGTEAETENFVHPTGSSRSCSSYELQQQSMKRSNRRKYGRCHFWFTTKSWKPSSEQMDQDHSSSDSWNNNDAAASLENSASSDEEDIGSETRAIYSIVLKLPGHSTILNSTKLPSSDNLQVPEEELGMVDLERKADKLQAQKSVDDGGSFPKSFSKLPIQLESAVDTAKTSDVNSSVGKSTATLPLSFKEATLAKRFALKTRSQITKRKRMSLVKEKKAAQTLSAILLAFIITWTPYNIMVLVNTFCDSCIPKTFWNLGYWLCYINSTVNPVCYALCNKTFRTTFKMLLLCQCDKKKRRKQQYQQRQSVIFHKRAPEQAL

[3] = biological target: T2, human muscarinic M4 receptor (Homo sapiens, UniProt P08173); test: Alphascreen Surefire phospho-ERK1/2 functional assay, M4; assay type: cell-based; details: for EC50 / % Emax cf. ACh, M4: CHO cells stably expressing human M4; for EC50: phospho-ERK1/2, * = variable results, read-out: pEC50 M4 (converted); for Emax: CHO, read-out: % Emax cf. ACh, M4, CHO cells stably expressing human M4; for Emax / % Emax cf. ACh, M4: relative to ACh
T2 construct: expressed in transfected cells
T2 sequence (P08173 1-479): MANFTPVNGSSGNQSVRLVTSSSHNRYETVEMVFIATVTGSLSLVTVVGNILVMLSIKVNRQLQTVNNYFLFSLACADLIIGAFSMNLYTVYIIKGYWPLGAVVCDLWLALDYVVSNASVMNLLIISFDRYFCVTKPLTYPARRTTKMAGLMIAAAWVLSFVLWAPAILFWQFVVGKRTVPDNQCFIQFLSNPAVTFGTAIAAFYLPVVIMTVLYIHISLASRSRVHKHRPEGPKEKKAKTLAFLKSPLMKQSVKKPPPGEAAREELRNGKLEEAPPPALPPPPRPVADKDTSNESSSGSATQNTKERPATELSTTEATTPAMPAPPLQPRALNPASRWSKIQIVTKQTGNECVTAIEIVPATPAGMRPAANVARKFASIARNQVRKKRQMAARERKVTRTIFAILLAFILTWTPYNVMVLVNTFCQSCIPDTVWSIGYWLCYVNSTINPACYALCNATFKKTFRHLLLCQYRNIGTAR

[4] = biological target: T3, human muscarinic M1 receptor (Homo sapiens, UniProt P11229); test: Alphascreen Surefire phospho-ERK1/2 functional assay, M1; assay type: cell-based; details: for EC50 / % Emax cf. ACh, M1: CHO cells stably expressing human M1; for EC50: phospho-ERK1/2, * = variable results, read-out: pEC50 M1 (converted); for Emax: CHO, read-out: % Emax cf. ACh, M1, CHO cells stably expressing human M1; for Emax / % Emax cf. ACh, M1: relative to ACh
T3 sequence (P11229 1-460): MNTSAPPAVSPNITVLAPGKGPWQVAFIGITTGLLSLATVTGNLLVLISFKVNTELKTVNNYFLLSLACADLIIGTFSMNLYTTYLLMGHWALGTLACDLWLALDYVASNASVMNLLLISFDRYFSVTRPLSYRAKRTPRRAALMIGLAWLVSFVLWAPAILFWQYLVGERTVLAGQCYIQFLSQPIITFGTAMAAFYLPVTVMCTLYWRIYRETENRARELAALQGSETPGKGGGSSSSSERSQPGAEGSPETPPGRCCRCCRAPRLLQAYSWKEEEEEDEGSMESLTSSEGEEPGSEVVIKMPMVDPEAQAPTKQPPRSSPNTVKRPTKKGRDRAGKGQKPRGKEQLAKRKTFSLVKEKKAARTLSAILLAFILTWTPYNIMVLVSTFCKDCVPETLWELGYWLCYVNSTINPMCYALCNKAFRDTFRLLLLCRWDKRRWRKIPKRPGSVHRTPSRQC

[5] = phospho-ERK1/2, * = variable results
[6] = CHO cells stably expressing human M3
[7] = CHO cells stably expressing human M2

EC50 [1] [nM] | Emax [2] [%] | EC50 [2, 5] [nM] | EC50 [3] [nM] | EC50 [4] [nM] | Emax [1] [%] | % Emax cf. ACh, M3 [2, 6] [%] | Emax [3] [%] | Emax [4] [%] | pEC50 M2 ([1]; CHO cells stably expressing human M2, phospho-ERK1/2, * = variable results) | % Emax cf. ACh, M2 [1, 7] [%] | pEC50 M3 ([2]; CHO cells stably expressing human M3, phospho-ERK1/2, * = variable results) | % Emax cf. ACh, M4 [3] [%] | % Emax cf. ACh, M1 [4] [%] | Compound
> 20000 | 48 | > 20000 | 6.31 | 63.1 | – | – | – | – | – | – | – | – | – | CCOC(=O)N1CCC2(CC(N3CCC(N4CC(F)(F)C[C@@H]4CO)CC3)C2)C1 (single isomer, unassigned) [2-107 Isomer 2]
> 20000 | – | 10000 | 15.8 | 398 | 9 | 26 | 91 | 50 | – | – | – | – | – | CCOC(=O)N1CCC2(CC(N3CCC(N4CC(F)(F)C[C@@H]4C(C)O)CC3)C2)C1 (single isomer, unassigned) [2-109 Isomer 2]
> 20000 | 5 | > 20000 | 126 | > 20000 | 1 | – | 63 | 2 | – | – | – | – | – | CCOC(=O)N1CCC2(CC(N3CCC(N4CCCC45CCOC5=O)CC3)C2)C1 (single isomer, unassigned) [2-96 Isomer 2, ethyl 2-[4-(6-oxo-7-oxa-1-azaspiro[4.4]non-1-yl)piperidin-1-yl]-6-azaspiro[3.4]octane-6-carboxylate]
> 20000 | 9 | > 20000 | 31.6 | 398 | 7 | – | 105 | 55 | – | – | – | – | – | CCOC(=O)N1CCC2(CC(N3CCC(c4ncco4)CC3)C2)C1 (single isomer, unassigned) [1-23 Isomer 2, ethyl 2-[4-(1,3-oxazol-2-yl)piperidin-1-yl]-6-azaspiro[3.4]octane-6-carboxylate]
> 20000 | 21 | > 20000 | 5.01 | 31.6 | 19 | – | 73 | 97 | – | – | – | – | – | CCOC(=O)N1CCC2(CC(N3CCC(C4CC(C)CNC4=O)CC3)C2)C1 (single isomer, unassigned) [4-4 Isomer 2, ethyl 2-(5-methyl-2-oxo-3,4′-bipiperidin-1′-yl)-6-azaspiro[3.4]octane-6-carboxylate]
> 20000 | 11 | > 20000 | 12.6 | 2510 | 52 | – | 110 | 69 | – | – | – | – | – | CCOC(=O)N1CCC2(CC(N3CCC([C@@H]4CCCN4C(=O)N4CCCC4)CC3)C2)C1 (single isomer, unassigned) [2-32 Isomer 2]
> 20000 | – | > 20000 | 39.8 | 126 | 10 | 35 | 114 | 82 | – | – | – | – | – | CCOC(=O)N1CCC2(CC(N3CCC(C4c5ccccc5CN4C(=O)NC)CC3)C2)C1 (single isomer, unassigned) [2-76 Isomer 1, ethyl 2-(4-(2-(methylcarbamoyl)-isoindolin-1-yl)piperidin-1-yl)-6-azaspiro[3.4]octane-6-carboxylate]
> 20000 | 2 | > 20000 | 10 | 631 | 6 | – | 86 | 74 | – | – | – | – | – | CCOC(=O)N1CCC2(CC(N3CCC([C@@H]4CCCN4C(=O)NC(C)C)CC3)C2)C1 (single isomer, unassigned) [2-25 Isomer 2]
– | – | – | 2.51 | 7.94 | – | 0 | – | – | < 4.7 | 43 | < 4.7 | 117 | 130 | CCOC(=O)N1CCC2(CC(N3CCC(n4cc(C)cn4)CC3)C2)C1 (single isomer, unassigned) [1-34 Isomer 2, ethyl 2-[4-(4-methyl-1H-pyrazol-1-yl)piperidin-1-yl]-6-azaspiro[3.4]octane-6-carboxylate]
> 20000 | 11 | > 20000 | 316 | 5010 | 1 | – | 45 | 23 | – | – | – | – | – | CCOC(=O)N1CCC2(CC(N3CCC(N4CCC[C@@H]4CF)CC3)C2)C1 (single isomer, unassigned) [2-102 Isomer 2]
> 20000 | – | > 20000 | 39.8 | > 20000 | – | – | – | 11 | – | – | – | – | – | CCOC(=O)N1CCC2(CC(N3CCC(c4ccnn4C)CC3)C2)C1 (single isomer, unassigned) [1-21 Isomer 2, ethyl 2-[4-(1-methyl-1H-pyrazol-5-yl)piperidin-1-yl]-6-azaspiro[3.4]octane-6-carboxylate]
> 20000 | 0 | > 20000 | 158 | 501 | – | – | – | – | – | 10 | – | 48 | 49 | CCOC(=O)N1CCC2(CC(N3CCC(n4cc(C)cn4)CC3)C2)C1 (single isomer, unassigned) [1-34 Isomer 1, ethyl 2-[4-(4-methyl-1H-pyrazol-1-yl)piperidin-1-yl]-6-azaspiro[3.4]octane-6-carboxylate]
> 20000 | 8 | > 20000 | 79.4 | > 20000 | 16 | – | 54 | 18 | – | – | – | – | – | CCOC(=O)N1CCC2(CC(N3CCC([C@@H]4CCCN4Cc4ccccc4)CC3)C2)C1 (single isomer, unassigned) [2-74 Isomer 2]
> 20000 | – | > 20000 | 15.8 | > 20000 | – | 0 | – | – | – | 50 | – | 45 | 1 | CCOC(=O)N1CCC2(CC(N3CCC([C@@H]4CCCN4C(=O)NCc4ccccn4)CC3)C2)C1 (single isomer, unassigned) [2-54 Isomer 1]
> 20000 | 5 | > 20000 | 50.1 | 631 | 27 | – | 99 | 66 | – | – | – | – | – | CCOC(=O)N1CCC2(CC(N3CCC(c4ncc(Cl)n4C)CC3)C2)C1 (single isomer, unassigned) [1-14 Isomer 2, ethyl 2-[4-(5-chloro-1-methyl-1H-imidazol-2-yl)piperidin-1-yl]-6-azaspiro[3.4]octane-6-carboxylate]
> 20000 | 8 | > 20000 | 15.8 | 1580 | 5 | – | 85 | 32 | – | – | – | – | – | CCOC(=O)N1CCC2(CC(N3CCC([C@@H]4CCCN4C(=O)COC)CC3)C2)C1 (single isomer, unassigned) [2-46 Isomer 2]
> 20000 | 4 | > 20000 | 15.8 | 631 | 3 | – | 86 | 36 | – | – | – | – | – | CCOC(=O)N1CCC2(CC(N3CCC([C@@H]4CCCN4C(=O)C4CC4)CC3)C2)C1 (single isomer, unassigned) [2-8 Isomer 2]
